Test results: PubChem BioAssay (NCI)
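Step 1: Grow cells in 96-well plates. Step 2: Expose to compound for 48 hours at 5 concentrations. Step 3: Interpolate endpoints linearly; if unreached, use highest concentration. The concentration for 50% growth inhibition is given as GI50. TGI: concentration producing complete growth inhibition.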

Columns and labels:
Assay in all cases: DTP human tumour cell line panel, 48 h
CCRF-CEM leukemia = tested on: CCRF-CEM leukemia
OVCAR-4 ovarian = tested on: OVCAR-4 ovarian
LOX IMVI melanoma = tested on: LOX IMVI melanoma
OVCAR-8 ovarian = tested on: OVCAR-8 ovarian
MOLT-4 leukemia = tested on: MOLT-4 leukemia
NCI-H23 lung = tested on: NCI-H23 lung
SN12C renal = tested on: SN12C renal
A498 renal = tested on: A498 renal
HCT-15 colon = tested on: HCT-15 colon
HS 578T breast = tested on: HS 578T breast
SNB-75 CNS = tested on: SNB-75 CNS
K-562 leukemia = tested on: K-562 leukemia
NCI-H226 lung = tested on: NCI-H226 lung
OVCAR-5 ovarian = tested on: OVCAR-5 ovarian
MDA-MB-435 = tested on: MDA-MB-435
HT29 colon = tested on: HT29 colon
KM12 colon = tested on: KM12 colon
NCI/ADR-RES ovarian = tested on: NCI/ADR-RES ovarian
UACC-62 melanoma = tested on: UACC-62 melanoma
SK-MEL-2 melanoma = tested on: SK-MEL-2 melanoma
MCF7 breast = tested on: MCF7 breast
EKVX NSCLC = tested on: EKVX NSCLC
MDA-MB-231 breast = tested on: MDA-MB-231 breast
SK-MEL-5 melanoma = tested on: SK-MEL-5 melanoma
IGROV1 ovarian = tested on: IGROV1 ovarian
RPMI-8226 leukemia = tested on: RPMI-8226 leukemia
SR leukemia = tested on: SR leukemia
SK-MEL-28 melanoma = tested on: SK-MEL-28 melanoma
DU-145 prostate = tested on: DU-145 prostate
SF-539 CNS = tested on: SF-539 CNS
HOP-92 NSCLC = tested on: HOP-92 NSCLC
SW-620 colon = tested on: SW-620 colon
UO-31 renal = tested on: UO-31 renal
HCC-2998 colon = tested on: HCC-2998 colon
M14 melanoma = tested on: M14 melanoma
786-0 renal = tested on: 786-0 renal
MALME-3M melanoma = tested on: MALME-3M melanoma
SF-268 CNS = tested on: SF-268 CNS
NCI-H522 lung = tested on: NCI-H522 lung
ACHN renal = tested on: ACHN renal
SNB-19 CNS = tested on: SNB-19 CNS
U251 CNS = tested on: U251 CNS
UACC-257 melanoma = tested on: UACC-257 melanoma
A549 NSCLC = tested on: A549 NSCLC
PC-3 prostate = tested on: PC-3 prostate
OVCAR-3 ovarian = tested on: OVCAR-3 ovarian
HOP-62 NSCLC = tested on: HOP-62 NSCLC
COLO 205 colon = tested on: COLO 205 colon
BT-549 breast = tested on: BT-549 breast
HCT-116 colon = tested on: HCT-116 colon
RXF 393 renal = tested on: RXF 393 renal
SF-295 CNS = tested on: SF-295 CNS
SK-OV-3 ovarian = tested on: SK-OV-3 ovarian
NCI-H460 lung = tested on: NCI-H460 lung
HL-60(TB) leukemia = tested on: HL-60(TB) leukemia
CAKI-1 renal = tested on: CAKI-1 renal
TK-10 renal = tested on: TK-10 renal

## COc1cc(C2C(C#N)=C(N)Oc3cc(O)ccc32)cc(OC)c1OC (configuration not stated)
CCRF-CEM leukemia
  GI50: 370 nM
  TGI: > 100 µM
OVCAR-4 ovarian
  GI50: 2140 nM
  TGI: > 100 µM
LOX IMVI melanoma
  GI50: 546 nM
  TGI: > 100 µM
OVCAR-8 ovarian
  GI50: 856 nM
  TGI: > 100 µM
MOLT-4 leukemia
  GI50: 584 nM
  TGI: > 100 µM
NCI-H23 lung
  GI50: 620 nM
  TGI: > 100 µM
SN12C renal
  GI50: 827 nM
  TGI: > 100 µM
A498 renal
  GI50: 218 nM
  TGI: 1450 nM
HCT-15 colon
  GI50: 539 nM
  TGI: > 100 µM
HS 578T breast
  GI50: 400 nM
  TGI: > 100 µM
SNB-75 CNS
  GI50: 271 nM
  TGI: > 100 µM
K-562 leukemia
  GI50: 435 nM
  TGI: > 100 µM
NCI-H226 lung
  GI50: 6.98 µM
  TGI: > 100 µM
OVCAR-5 ovarian
  GI50: 2360 nM
  TGI: > 100 µM
MDA-MB-435
  GI50: 147 nM
  TGI: 643 nM
HT29 colon
  GI50: 390 nM
  TGI: 11.8 µM
KM12 colon
  GI50: 454 nM
  TGI: 63.3 µM
NCI/ADR-RES ovarian
  GI50: 1720 nM
  TGI: > 100 µM
UACC-62 melanoma
  GI50: 407 nM
  TGI: > 100 µM
SK-MEL-2 melanoma
  GI50: 496 nM
  TGI: > 100 µM
MCF7 breast
  GI50: 334 nM
  TGI: > 100 µM
EKVX NSCLC
  GI50: 6.49 µM
  TGI: > 100 µM
MDA-MB-231 breast
  GI50: 1850 nM
  TGI: > 100 µM
SK-MEL-5 melanoma
  GI50: 370 nM
  TGI: 26.7 µM
IGROV1 ovarian
  GI50: 2190 nM
  TGI: > 100 µM
RPMI-8226 leukemia
  GI50: 650 nM
  TGI: > 89.6 µM
SR leukemia
  GI50: 335 nM
  TGI: > 100 µM
SK-MEL-28 melanoma
  GI50: 860 nM
  TGI: > 100 µM
DU-145 prostate
  GI50: 659 nM
  TGI: > 100 µM
SF-539 CNS
  GI50: 333 nM
HOP-92 NSCLC
  GI50: 301 nM
  TGI: 97.5 µM
SW-620 colon
  GI50: 361 nM
  TGI: > 100 µM
UO-31 renal
  GI50: 3.84 µM
  TGI: > 100 µM
HCC-2998 colon
  GI50: 964 nM
  TGI: > 54.8 µM
M14 melanoma
  GI50: 409 nM
  TGI: > 100 µM
786-0 renal
  GI50: 668 nM
  TGI: > 100 µM
MALME-3M melanoma
  GI50: 644 nM
  TGI: > 100 µM
SF-268 CNS
  GI50: 14.5 µM
  TGI: > 100 µM
NCI-H522 lung
  GI50: 281 nM
  TGI: 3.85 µM
ACHN renal
  GI50: 882 nM
  TGI: > 100 µM
SNB-19 CNS
  TGI: > 100 µM
U251 CNS
  GI50: 439 nM
  TGI: > 100 µM
UACC-257 melanoma
  GI50: 401 nM
  TGI: > 100 µM
A549 NSCLC
  GI50: 625 nM
  TGI: > 100 µM
PC-3 prostate
  GI50: 619 nM
  TGI: > 100 µM
OVCAR-3 ovarian
  GI50: 317 nM
  TGI: 851 nM
HOP-62 NSCLC
  GI50: 746 nM
  TGI: > 100 µM
COLO 205 colon
  GI50: 583 nM
  TGI: 4.1 µM
BT-549 breast
  GI50: 419 nM
  TGI: 33.3 µM
HCT-116 colon
  GI50: 428 nM
  TGI: > 100 µM
RXF 393 renal
  GI50: 362 nM
  TGI: 1990 nM
SF-295 CNS
  GI50: 374 nM
  TGI: > 100 µM
SK-OV-3 ovarian
  GI50: 481 nM
  TGI: > 43.9 µM
NCI-H460 lung
  GI50: 382 nM
  TGI: > 75.2 µM
HL-60(TB) leukemia
  GI50: 311 nM
  TGI: > 100 µM
CAKI-1 renal
  GI50: 970 nM
  TGI: > 100 µM
TK-10 renal
  GI50: 8.61 µM
  TGI: > 100 µM
